Bounds are passed on as bounds.

Drawing on PMC3192013 (ChemMedChem, 2011), this text covers IC50 for 26 compounds.

Experiment [1] relates to Stat3 (Stat3–Stat3:DNA complex, EMSA). The experiment in a line: in vitro Stat3 inhibition. The experiment is classed as biochemical. The conditions noted are these: assay not given.
Experiment [2] shares this test system. The experiment in a line: EMSA, Stat3-Stat3:DNA disruption. The experiment is classed as biochemical. Particulars: nuclear extract. (In general: In EMSA bound probe runs differently from free probe, usually more slowly.)

In experiment [1], `O=C(O)c1ccc(N(Cc2ccc(C3CCCCC3)cc2)C(=O)CO)cc1O` [compound 47, primary alcohol 47] gave an IC50 above 300 µM. As to `Cc1ccc(S(=O)(=O)N(C)CC(=O)N(Cc2ccc(-c3cccc(C(N)=O)c3)cc2)c2ccc(C(=O)O)c(O)c2)cc1` [27lc, 27 lc], in experiment [2] (read-out: [drawing 30] / IC50), the IC50 was above 300 µM. The compound `Cc1ccc(S(=O)(=O)N(CC(=O)Nc2ccc(C(=O)O)c(O)c2)C(=O)OC(C)(C)C)cc1` [compound 11, 11] had an IC50 in experiment [2] above 300 µM. Same read-out and setting: under `Cc1ccc(S(=O)(=O)OCC(=O)N(Cc2ccccc2)c2ccc(C(=O)O)c(O)c2)cc1` [compound 12, SF-1-120] stands above 300 µM; under `Cc1ccc(S(=O)(=O)N(C)CC(=O)N(Cc2ccc(C3CCNCC3)cc2)c2ccc(C(=O)O)c(O)c2)cc1` [27kb, 27 kb], above 300 µM. Still for that read-out and setting: then `Cc1ccc(S(=O)(=O)N(C)CC(=O)N(Cc2ccc(C3CCN(C(=O)OC(C)(C)C)CC3)cc2)c2ccc(C(=O)O)c(O)c2)cc1` [27kc, 27 kc], with above 300 µM. On the same count and under the same terms, under `Cc1ccc(S(=O)(=O)N(CC(=O)N(Cc2ccccc2)c2ccc(C(=O)O)c(O)c2)C(=O)OC(C)(C)C)cc1` [compound 15, 15] stands above 300 µM. Regarding `Cc1ccc(S(=O)(=O)N(C)CC(=O)N(Cc2ccc(-c3ccc(C#N)cc3)cc2)c2ccc(C(=O)O)c(O)c2)cc1` [27lf, 27 lf], the IC50 in experiment [2] (read-out: [drawing 30] / IC50) came out at 274 ± 10 µM. On to `Cc1ccc(S(=O)(=O)N(C)CC(=O)N(CC2CCCCC2)c2ccc(C(=O)O)c(O)c2)cc1` [27e, 27 e], for which, in experiment [2], the IC50 was above 300 µM. Turning to `Cc1ccc(S(=O)(=O)N(C)CC(=O)N(CC2CCN(C(=O)OC(C)(C)C)CC2)c2ccc(C(=O)O)c(O)c2)cc1` [27jb, 27 jb], the IC50 in experiment [2] is above 300 µM. For the compound `Cc1ccc(S(=O)(=O)N(C)CC(=O)N(Cc2ccc(-c3ccc(C(N)=O)cc3)cc2)c2ccc(C(=O)O)c(O)c2)cc1` [27lg, 27 lg], the IC50 in experiment [2] (read-out: [drawing 30] / IC50) is above 300 µM. For the compound `Cc1ccc(S(=O)(=O)NCC(=O)N(Cc2ccc(C3CCCCC3)cc2)c2ccc(C(=O)O)c(O)c2)cc1` [compound 41, SF-1-083], in experiment [2], the IC50 was found to be 95 ± 9 µM. For `Cc1ccc(S(=O)(=O)N(C)CC(=O)N(Cc2ccc(-c3ccc(-c4ccc(C(N)=O)cc4)cc3)cc2)c2ccc(C(=O)O)c(O)c2)cc1` [27nh, 27 nh], the IC50 in experiment [2] (read-out: [drawing 31] / IC50) was found to be 43 ± 1.3 µM. In the case of `Cc1ccc(S(=O)(=O)N(C)CC(=O)N(Cc2ccc(C(C)(C)C)cc2)c2ccc(C(=O)O)c(O)c2)cc1` [27f, SF-1-068], the IC50 in experiment [2] was 194 ± 47 µM. Still for that read-out and setting: under `Cc1ccc(S(=O)(=O)N(C)CC(=O)N(Cc2ccc(C#N)cc2)c2ccc(C(=O)O)c(O)c2)cc1` [27c, SF-1-073] stands 260 ± 47 µM.

Regarding `COC(=O)c1cccc(-c2ccc(CN(C(=O)CN(C)S(=O)(=O)c3ccc(C)cc3)c3ccc(C(=O)O)c(O)c3)cc2)c1` [27la, 27 la], the IC50 in experiment [2] (read-out: [drawing 30] / IC50) is 191 ± 8 µM. `Cc1ccc(S(=O)(=O)NCC(=O)N(Cc2ccccc2)c2ccc(C(=O)O)c(O)c2)cc1` [compound 13, 13] registered an IC50 in experiment [2] above 300 µM. On the same count and under the same terms, then `Cc1ccc(S(=O)(=O)N(C)CC(=O)Nc2ccc(C(=O)O)c(O)c2)cc1` [compound 10, 10], with above 300 µM; and `Cc1ccc(S(=O)(=O)N(C)CC(=O)N(Cc2ccc(C3CCN(S(=O)(=O)c4ccc(C#N)cc4)CC3)cc2)c2ccc(C(=O)O)c(O)c2)cc1` [27kg, 27 kg], with 50 ± 15 µM. With `Cc1ccc(S(=O)(=O)N(C)CC(=O)N(Cc2ccccc2)c2ccc(C(=O)O)c(O)c2)cc1` [compound 14, SF-1-062], the IC50 in experiment [2] (Table 2 prints 295 ± 35) came to 292 ± 35 µM.

As to `Cc1ccc(S(=O)(=O)NCC(=O)Nc2ccc(C(=O)O)c(O)c2)cc1` [compound 9, SF-1-082], in experiment [2], the IC50 was above 300 µM.

Consider `COC(=O)c1ccc(-c2ccc(CN(C(=O)CN(C)S(=O)(=O)c3ccc(C)cc3)c3ccc(C(=O)O)c(O)c3)cc2)cc1` [27ld, 27 ld], for which the IC50 in experiment [2] (read-out: [drawing 30] / IC50, label printed 27 gld) is 141 ± 10 µM. `Cc1ccc(S(=O)(=O)N(C)CC(=O)N(CC2CCN(c3ncccn3)CC2)c2ccc(C(=O)O)c(O)c2)cc1` [27jd, 27 jd] gave an IC50 in experiment [2] above 300 µM. Consider `Cc1ccc(S(=O)(=O)N(C)CC(=O)N(Cc2ccc(C3CCN(c4ccc(C#N)cc4)CC3)cc2)c2ccc(C(=O)O)c(O)c2)cc1` [27kd, 27 kd], for which the IC50 in experiment [2] was determined as 45 ± 12 µM. Same read-out and setting: then `Cc1ccc(S(=O)(=O)N(C)CC(=O)N(Cc2ccc(C3CCN(C(=O)C(F)(F)F)CC3)cc2)c2ccc(C(=O)O)c(O)c2)cc1` [27ka, 27 ka], with above 300 µM.

Take `Cc1ccc(S(=O)(=O)N(C)CC(=O)N(CC2CCN(c3ccc(C#N)cc3)CC2)c2ccc(C(=O)O)c(O)c2)cc1` [27jc, 27 jc]: the IC50 in experiment [2] was above 300 µM.
